Reference: patent US20180282323A1, “Mesoionic imidazole derivatives as insecticides” (BAYER CROPSCIENCE AKTIENGESELLSCHAFT, priority 2015, published 2018)
Read-outs that look alike come from different tables or passages of the source.

Experiments:
[1] = log P by HPLC on reversed-phase column (EEC directive 79/831 Annex V.A8); type: physicochemical; settings: for log p: HPLC on reversed-phase column (footnote a); for log p a): HPLC on reversed-phase column
Procedure, shortened: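 Reversed-phase (C18) HPLC at 43° C, following EEC directive 79/831 Annex V.A8.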

[2] = system: Myzus persicae; assay: Myzus persicae spray test (Chinese cabbage leaf discs); type: in vivo; settings: application rate 500 g/ha, after 6 days
Experimental: Myzus persicae—Spray Test Solvent: 78 parts by weight of acetone • • 1.5 parts by weight of dimethylformamide Emulsifier: alkylaryl polyglycol ether
(§1) To produce a suitable active ingredient formulation, 1 part by weight of active ingredient is dissolved with the stated parts by weight of solvent and made up with water containing an emulsifier concentration of 1000 ppm until the desired concentration is attained. To produce further test concentrations, the formulation is diluted with emulsifier-containing water.
Discs of Chinese cabbage leaves (Brassica pekinensis) infested by all stages of the green peach aphid (Myzus persicae) are sprayed with an active ingredient formulation of the desired concentration.
After 6 days, the efficacy in % is determined. 100% means that all the aphids have been killed; 0% means that no aphids have been killed.

[3] = system: Myzus persicae; assay: Myzus persicae oral test; type: in vivo; settings: application rate 20 ppm, oral uptake through parafilm, after 5 days; for pest or weed control at 20 ppm: Myzus persicae, 120 h, read-out: efficacy
Procedure, shortened: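 Oral feeding format: mixed-stage Myzus persicae imbibe acetone/water compound formulation in sugared IPL41 medium through parafilm. Efficacy assessed as percent aphids killed at day 5.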

[4] = system: Diabrotica balteata; assay: Diabrotica balteata spray test; type: in vivo; settings: application rate 160 μg/well, wheat grains with beetle larvae, after 7 days
Experimental: Diabrotica balteata—Spray Test Solvent: 78 parts by weight of acetone • • 1.5 parts by weight of dimethylformamide Emulsifier: alkylaryl polyglycol ether
as §1
Pre-swollen wheat grains (Triticum aestivum) are incubated in a multiwell plate filled with agar and a little water for one day (5 seed grains per cavity). The germinated wheat grains are sprayed with an active ingredient formulation of the desired concentration. Subsequently, each cavity is infected with 10-20 beetle larvae of Diabrotica balteata.
After 7 days, the efficacy in % is determined. 100% means that all wheat plants have grown as in the untreated, uninfected control; 0% means that no wheat plant has grown.

SMILES	log p [1]	efficacy [2]	efficacy [3]	log p a) [1]	efficacy [4]	chromatographic logP [1]	chromatographic logP ([1]; pH 2.7)	pest or weed control at 20 ppm [3]
CC(=O)N(C)CC(=O)c1c([O-])n(Cc2cnc(Cl)s2)c2cccc[n+]12 [Example I-1-076]	1.18	100%	100%					
Cc1ccc[n+]2c(C(=O)Nc3c(F)cccc3F)c([O-])n(Cc3cnc(Cl)s3)c12 [Example I-1-291]				3.07	80%			
COC(=O)c1c([O-])n(Cc2ccc(Cl)nc2)c2cccc[n+]12 [Example I-1-101]	1.18	90%	100%					
O=C(Nc1ncccc1Cl)c1c([O-])n(Cc2cnc(Cl)s2)c2cccc[n+]12 [Example I-1-301]		100%	100%	1.63				
CCOCC(=O)c1c([O-])n(Cc2cncnc2)c2cccc[n+]12 [Example I-1-072]	0.59	100%	100%					
O=C(Nc1ccccc1C(F)(F)F)c1c([O-])n(Cc2cnc(Cl)s2)c2cccc[n+]12 [Example I-1-311]		100%	100%	3.22				
COC(=O)c1c([O-])n(Cc2cncnc2)c2cccc[n+]12 [Example I-1-107]	0.42	90%	100%					
N#Cc1cccnc1NC(=O)c1c([O-])n(Cc2cnc(Cl)s2)c2cccc[n+]12 [Example I-1-310]		90%	100%	1.75				
CSCC(=O)c1c([O-])n(Cc2ccc(Cl)nc2)c2cccc[n+]12 [Example I-1-005]	1.62	90%	100%					
Cn1nccc1NC(=O)c1c([O-])n(Cc2ccc(Cl)nc2)c2cccc[n+]12 [Example I-1-325]		90%	100%	1.49				
CCC(CC)OCC(=O)c1c([O-])n(Cc2cnc(Cl)s2)c2c(C)ccc[n+]12 [Example I-1-293]		100%	100%	2.76				
CCCNC(=O)c1c([O-])n(C(C)c2ccc(Cl)nc2)c2c(C)ccc[n+]12 (racemic) [Example I-1-258]				2.23	80%			
Cc1ccc[n+]2c(C(=O)NC(C)c3ccc(Cl)cc3)c([O-])n(Cc3cnc(Cl)s3)c12 (stereo not shown) [Example I-1-210]		100%	100%	3.46				
CCCOCC(=O)c1c([O-])n(Cc2cncnc2)c2cccc[n+]12 [Example I-1-061]	1.08	100%	100%					
O=C(Nc1ncccc1Cl)c1c([O-])n(Cc2ccc(Cl)nc2)c2cccc[n+]12 [Example I-1-315]		100%	100%	1.46				
CNC(=O)c1c([O-])n(Cc2cnc(Cl)s2)c2cccc[n+]12 [Example I-1-128]	1.31				100%			
O=C(Nc1cccc(C(F)(F)F)c1)c1c([O-])n(Cc2cnc(Cl)s2)c2cccc[n+]12 [Example I-1-233]				3.76	80%			
CC(=O)Nc1ccn(CC(=O)c2c([O-])n(Cc3cnc(Cl)s3)c3cccc[n+]23)n1 [Example I-1-056]	1.21	90%	90%					
O=C(Cn1nccn1)c1c([O-])n(Cc2cnc(Cl)s2)c2cccc[n+]12 [Example I-1-068]	1.41	100%	100%					
Cc1ccn(CC(=O)c2c([O-])n(Cc3cnc(Cl)s3)c3c(C)ccc[n+]23)n1 [Example I-1-092]	1.84	90%	100%					
N#Cc1cnn(CC(=O)c2c([O-])n(Cc3cnc(Cl)s3)c3cccc[n+]23)c1 [Example I-1-015]	1.68	90%	100%					
O=C(Cn1cccn1)c1c([O-])n(Cc2ccc(Cl)nc2)c2ccc(F)c[n+]12 [Example I-1-106]	1.53	90%	90%					

SMILES	log p [1]	efficacy [2]	efficacy [3]	log p a) [1]	efficacy [4]	chromatographic logP [1]	chromatographic logP ([1]; pH 2.7)	pest or weed control at 20 ppm [3]
O=C(Nc1c(F)cccc1F)c1c([O-])n(Cc2ccc(Cl)nc2)c2cccc[n+]12 [Example I-1-313]		90%	100%	2.27				
CC(C)OCC(=O)c1c([O-])n(Cc2cnc(Cl)s2)c2cccc[n+]12 [Example I-1-026, 1-[(2-chloro-1,3-thiazol-5-yl)methyl]-3-(isopropoxyacetyl)-1H-imidazo[1,2-a]pyridin-4-ium-2-olate]		100%				1.73	1.8	100%
Cc1ccc[n+]2c(C(=O)COCC(F)(F)F)c([O-])n(Cc3cnc(Cl)s3)c12 [Example I-1-297]		90%	100%	2.34				
C[S+]([O-])CC(=O)c1c([O-])n(Cc2ccc(Cl)nc2)c2cccc[n+]12 (stereo not shown) [Example I-1-022]	0.91	100%	100%					
N#Cc1cccc(Cl)c1NC(=O)c1c([O-])n(Cc2cnc(Cl)s2)c2cccc[n+]12 [Example I-1-319]		90%	100%	2.43				
Cc1ccccc1NC(=O)c1c([O-])n(Cc2ccc(Cl)nc2)c2cccc[n+]12 [Example I-1-328]		90%	100%	2.73				
Cn1nccc1OCC(=O)c1c([O-])n(Cc2cnc(Cl)s2)c2cccc[n+]12 [Example I-1-086]	1.53	100%	100%					
CC(=O)c1c([O-])n(Cc2cnc(Cl)s2)c2cccc[n+]12 [Example I-1-043, 3-Acetyl-1-[(2-chloro-1,3-thiazol-5-yl)methyl]-1H-imidazo[1,2-a]pyridin-4-ium-2-olate]		100%				1.29	1.29	100%
O=C(Nc1c(Cl)ccnc1Cl)c1c([O-])n(Cc2cnc(Cl)s2)c2cccc[n+]12 [Example I-1-305]		90%	100%	2.14				
O=C(Nc1cccnc1Cl)c1c([O-])n(Cc2cnc(Cl)s2)c2cccc[n+]12 [Example I-1-308]		90%	100%	2.4				
Cc1ccnc(Cl)c1NC(=O)c1c([O-])n(Cc2cnc(Cl)s2)c2cccc[n+]12 [Example I-1-309]		100%	100%	2.03				
Cc1ccc[n+]2c(C(=O)Nc3ncccc3F)c([O-])n(Cc3cnc(Cl)s3)c12 [Example I-1-274]		90%	100%	1.78				
O=C(Cn1cc(Cl)cn1)c1c([O-])n(Cc2cnc(Cl)s2)c2cccc[n+]12 [Example I-1-010]	2.09	90%	100%					
Cc1cccc(Cl)c1NC(=O)c1c([O-])n(Cc2cnc(Cl)s2)c2cccc[n+]12 [Example I-1-304]		100%	100%	2.8				
CCC(=O)N(CC)CC(=O)c1c([O-])n(Cc2ccc(Cl)nc2)c2cccc[n+]12 [Example I-1-070]	1.64	100%	100%					
COCC(=O)c1c([O-])n(Cc2cncnc2)c2cccc[n+]12 [Example I-1-023]	0.4	100%	100%					
CCCNC(=O)c1c([O-])n(Cc2cnc(Cl)cn2)c2cccc[n+]12 [Example I-1-279]		90%	100%	1.81				
Cc1ccc[n+]2c(C(=O)CCl)c([O-])n(Cc3cnc(Cl)s3)c12 [Example I-1-081]	1.98	100%	100%					
COCC(=O)c1c([O-])n(C(C)c2ccc(Cl)nc2)c2cccc[n+]12 (stereo not shown) [Example I-1-178]	1.35	90%	100%					
CCOCC(=O)c1c([O-])n(Cc2cnc(Cl)s2)c2ccc(F)c[n+]12 [Example I-1-112]	1.58	90%	100%					
Cc1ccc[n+]2c(C(=O)COC(C)(C)C)c([O-])n(Cc3cnc(Cl)s3)c12 [Example I-1-296]		90%	100%	2.12				
COC(=O)c1c([O-])n(Cc2cnc(Cl)s2)c2cccc(C)[n+]12 [Example I-1-122]	1.32	90%	100%					
